In test [1] the test system is Aβ. The following applies: cited from earlier work.
Test [2] has as its target Porcine gastric mucosa pepsin (Sus scrofa, UniProt P00791). In words: Pepsin FRET assay. In kind it is biochemical.
Test [3] addresses T1, Renin recombinant human enzyme (Homo sapiens, UniProt P00797).
T1 sequence (P00797 67-406): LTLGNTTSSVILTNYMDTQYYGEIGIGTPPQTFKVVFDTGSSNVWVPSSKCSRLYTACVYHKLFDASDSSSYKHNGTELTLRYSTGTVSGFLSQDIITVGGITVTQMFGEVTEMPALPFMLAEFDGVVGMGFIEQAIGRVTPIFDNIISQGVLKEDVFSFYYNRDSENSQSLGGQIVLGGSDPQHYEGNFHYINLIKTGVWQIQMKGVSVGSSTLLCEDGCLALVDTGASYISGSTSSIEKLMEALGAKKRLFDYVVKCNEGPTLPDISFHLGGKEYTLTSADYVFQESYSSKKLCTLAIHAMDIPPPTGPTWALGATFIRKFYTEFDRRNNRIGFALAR
Nature of the test: Renin FRET assay. In kind it is biochemical.

One may read the IC50 as the concentration that inhibits the measured activity by half.

The structures appear in SMILES notation.

Sequence of Porcine gastric mucosa pepsin (P00791 60-385): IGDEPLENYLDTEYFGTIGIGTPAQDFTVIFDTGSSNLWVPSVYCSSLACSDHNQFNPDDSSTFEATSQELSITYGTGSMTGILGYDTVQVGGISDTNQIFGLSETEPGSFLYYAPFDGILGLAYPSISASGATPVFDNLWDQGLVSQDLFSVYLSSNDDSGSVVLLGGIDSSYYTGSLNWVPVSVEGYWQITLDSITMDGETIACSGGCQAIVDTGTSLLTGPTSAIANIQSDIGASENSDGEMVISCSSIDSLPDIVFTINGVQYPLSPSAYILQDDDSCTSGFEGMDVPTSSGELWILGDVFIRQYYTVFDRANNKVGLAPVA

For the compound `CN1C(=N)N[C@](C)(c2cc(NC(=O)c3ccc(F)cn3)ccc2F)CS1(=O)=O` [verubecestat], the “Aβ reduction explored in Phase III studies” value in test [1] is “approximately 85%”.
With `NC1=N[C@@]2(c3cc(NC(=O)c4ccc(F)cn4)ccc3F)COC[C@H]2CS1` [LY2886721, reference compound], the IC50 came to 77.4 µM in test [2] and 14.1 µM in test [3].

These data come from paper PMC8842743 (Journal of Alzheimer's Disease Reports, 2022).
